pEC50: −log10 of the molar value. A value given as a limit tells only on which side of the number the result lay.

Sequence of NAMPT enzyme (P43490 whole entry, species assumed): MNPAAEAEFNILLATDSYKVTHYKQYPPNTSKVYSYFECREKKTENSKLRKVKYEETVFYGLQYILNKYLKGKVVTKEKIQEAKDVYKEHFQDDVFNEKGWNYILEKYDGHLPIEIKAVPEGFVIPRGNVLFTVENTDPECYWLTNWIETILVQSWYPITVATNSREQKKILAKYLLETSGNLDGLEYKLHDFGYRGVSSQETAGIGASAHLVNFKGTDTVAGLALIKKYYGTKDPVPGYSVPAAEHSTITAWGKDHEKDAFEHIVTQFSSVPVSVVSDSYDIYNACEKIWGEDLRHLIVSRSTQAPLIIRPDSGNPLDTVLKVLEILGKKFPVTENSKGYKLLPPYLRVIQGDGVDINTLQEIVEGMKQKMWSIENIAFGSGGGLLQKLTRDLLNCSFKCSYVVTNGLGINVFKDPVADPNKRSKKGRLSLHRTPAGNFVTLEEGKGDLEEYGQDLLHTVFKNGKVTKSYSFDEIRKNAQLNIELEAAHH

For one experiment, the target named is NAMPT enzyme (Homo sapiens (Human), UniProt P43490). Nature of the experiment: Enzyme Assay and NMN Detection (NAMPT reaction, fluorescence detection of NMN). The experiment is classed as biochemical. To be noted: Table B-1; NAMPT activation, NMN formation. The essentials:
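Reaction in 50 mM HEPES pH 7.5, 5 mM MgCl2, 0.1% Prionex, 0.005% Tween 20, 1 mM TCEP at room temperature, with 16 nM NAMPT, 120 uM ATP, 5 uM nicotinamide, 6.25 uM PRPP, 0.04 U/ml pyrophosphatase for 2 h. Stopped with acetophenone/KOH then formic acid; NMN quantified by fluorescence (ex380/em460) against calibration curve.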
`O=C(NCc1cn[nH]c1)Nc1ccc(C(=O)Nc2cccc(Cl)c2)cc1` [N-(3-Chloro-phenyl)-4-[3-(1H-pyrazol-4-ylmethyl)-ureido]-benzamide]: the pEC50 (in general, the EC50 on a negative log10 scale, so that one unit is a factor of ten) was 5.70 to 7.00.
Consider `COc1cccc(CNS(=O)(=O)c2ccc(NC(=O)NCc3cn[nH]c3)cc2)c1` [N-(3-Methoxy-benzyl)-4-[3-(1H-pyrazol-4-ylmethyl)-ureido]-benzenesulfonamide], for which the pEC50 is 5.70 to 7.00.
Still for that read-out and setting: then `O=C(NCc1cn[nH]c1)Nc1ccc(NS(=O)(=O)Cc2ccccc2)cc1` [N-(4-(3-((1H-pyrazol-4-yl)methyl)ureido)phenyl)-1-phenylmethanesulfonamide], with greater than 7.00; and `O=C(NCc1cn[nH]c1)Nc1ccc(S(=O)(=O)NCc2ccc(Cl)cc2)cc1` [N-(4-Chloro-benzyl)-4-[3-(1H-pyrazol-4-ylmethyl)-ureido]-benzenesulfonamide], with 5.70 to 7.00; and `COc1ccc(CNS(=O)(=O)c2ccc(NC(=O)NCc3cn[nH]c3)cc2)cc1` [N-(4-Methoxy-benzyl)-4-[3-(1H-pyrazol-4-ylmethyl)-ureido]-benzenesulfonamide], with greater than 7.00.

Still in this experiment, the particulars now being: Table B-2; NAMPT activation, NMN formation.
As to `O=C(NCc1ccncc1)Nc1ccc(C(=O)NCc2ccccc2Cl)cc1` [N-(2-chlorobenzyl)-4-(3-(pyridin-4-ylmethyl)ureido)benzamide], the pEC50 was less than 4.70.
As for `O=C(NCc1ccncc1)Nc1ccc(C(=O)Nc2ccccc2Cl)cc1` [N-(2-chlorophenyl)-4-(3-(pyridin-4-ylmethyl)ureido)benzamide], the pEC50 is 5.70 to 7.00.
Compound `O=C(NCc1ccncc1)Nc1ccc(C(=O)NCc2ccccc2F)cc1` [N-(2-fluorobenzyl)-4-(3-(pyridin-4-ylmethyl)ureido)benzamide] had a negative-log EC50 (pEC50) of 5.30 to 5.70.
`O=C(NCc1ccncc1)Nc1ccc(S(=O)(=O)NCc2ccccc2F)cc1` [N-(2-fluorobenzyl)-4-(3-(pyridin-4-ylmethyl)ureido)benzenesulfonamide] showed a pEC50 of 5.70 to 7.00.
The compound `O=C(NCc1ccncc1)Nc1ccc(C(=O)Nc2ccccc2F)cc1` [N-(2-fluorophenyl)-4-(3-(pyridin-4-ylmethyl)ureido)benzamide] had a pEC50 of 5.70 to 7.00.
The compound `O=C(NCc1ccncc1)Nc1ccc(C(=O)NCCO)cc1` [N-(2-hydroxyethyl)-4-(3-(pyridin-4-ylmethyl)ureido)benzamide] showed a pEC50 of less than 4.70.
`COc1ccccc1CNC(=O)c1ccc(NC(=O)NCc2ccncc2)cc1` [N-(2-methoxybenzyl)-4-(3-(pyridin-4-ylmethyl)ureido)benzamide] gave a pEC50 of less than 4.70.
The same measure, in the same setting: to `COc1ccccc1CNS(=O)(=O)c1ccc(NC(=O)NCc2ccncc2)cc1` [N-(2-methoxybenzyl)-4-(3-(pyridin-4-ylmethyl)ureido)benzenesulfonamide] belongs 5.70 to 7.00; to `COCCNC(=O)c1ccc(NC(=O)NCc2ccncc2)cc1` [N-(2-methoxyethyl)-4-(3-(pyridin-4-ylmethyl)ureido)benzamide], 5.30 to 5.70; to `COc1ccccc1NC(=O)c1ccc(NC(=O)NCc2ccncc2)cc1` [N-(2-methoxyphenyl)-4-(3-(pyridin-4-ylmethyl)ureido)benzamide], 5.70 to 7.00.
As to `Cc1ccccc1CNC(=O)c1ccc(NC(=O)NCc2ccncc2)cc1` [N-(2-methylbenzyl)-4-(3-(pyridin-4-ylmethyl)ureido)benzamide], the pEC50 is 5.70 to 7.00.
Compound `O=C(NCc1ccncc1)Nc1ccc(C(=O)NCCN2CCOCC2)cc1` [N-(2-morpholinoethyl)-4-(3-(pyridin-4-ylmethyl)ureido)benzamide] had a pEC50 of 5.70 to 7.00.
In the case of `COc1ccc(NC(=O)c2ccc(NC(=O)NCc3ccncc3)cc2)cc1OC` [N-(3,4-dimethoxyphenyl)-4-(3-(pyridin-4-ylmethyl)ureido)benzamide], the negative-log EC50 (pEC50) is 5.70 to 7.00.
The same measure, in the same setting: to `Cc1ccc(NC(=O)c2ccc(NC(=O)NCc3ccncc3)cc2)cc1C` [N-(3,4-dimethylphenyl)-4-(3-(pyridin-4-ylmethyl)ureido)benzamide] belongs 5.70 to 7.00.
For `CN(C)c1cccc(NC(=O)c2ccc(NC(=O)NCc3ccncc3)cc2)c1` [N-(3-(dimethylamino)phenyl)-4-(3-(pyridin-4-ylmethyl)ureido)benzamide], the pEC50 is 5.70 to 7.00.
In turn, `O=C(NCc1ccncc1)Nc1ccc(S(=O)(=O)NCc2cccc(Cl)c2)cc1` [N-(3-Chloro-benzyl)-4-(3-pyridin-4-ylmethyl-ureido)-benzenesulfonamide] showed a pEC50 of 5.70 to 7.00.
`N#Cc1cccc(CNS(=O)(=O)c2ccc(NC(=O)NCc3ccncc3)cc2)c1` [N-(3-Cyano-benzyl)-4-(3-pyridin-4-ylmethyl-ureido)-benzenesulfonamide] showed a pEC50 of 5.70 to 7.00.
`CN(C)c1cccc(CNS(=O)(=O)c2ccc(NC(=O)NCc3ccncc3)cc2)c1` [N-(3-Dimethylamino-benzyl)-4-(3-pyridin-4-ylmethyl-ureido)-benzenesulfonamide]: the pEC50 was 5.70 to 7.00.
The same measure, in the same setting: then `COc1cccc(CNS(=O)(=O)c2ccc(NC(=O)NCc3ccncc3)cc2)c1` [N-(3-Methoxy-benzyl)-4-(3-pyridin-4-ylmethyl-ureido)-benzenesulfonamide], with 5.70 to 7.00; and `COc1cccc(NS(=O)(=O)c2ccc(NC(=O)NCc3ccncc3)cc2)c1` [N-(3-Methoxy-phenyl)-4-(3-pyridin-4-ylmethyl-ureido)-benzenesulfonamide], with 5.70 to 7.00; and `COCCCNS(=O)(=O)c1ccc(NC(=O)NCc2ccncc2)cc1` [N-(3-Methoxy-propyl)-4-(3-pyridin-4-ylmethyl-ureido)-benzenesulfonamide], with 5.70 to 7.00.
Regarding `Cc1cccc(CNS(=O)(=O)c2ccc(NC(=O)NCc3ccncc3)cc2)c1` [N-(3-Methyl-benzyl)-4-(3-pyridin-4-ylmethyl-ureido)-benzenesulfonamide], the pEC50 is 5.70 to 7.00.
Consider `O=C(NCc1ccncc1)Nc1ccc(C(=O)NCc2cccc(Cl)c2)cc1` [N-(3-chlorobenzyl)-4-(3-(pyridin-4-ylmethyl)ureido)benzamide], for which the pEC50 was less than 4.70.
For the compound `O=C(NCc1ccncc1)Nc1ccc(C(=O)Nc2cccc(Cl)c2)cc1` [N-(3-chlorophenyl)-4-(3-(pyridin-4-ylmethyl)ureido)benzamide], the negative logarithm of the EC50 (pEC50) was 5.70 to 7.00.
In turn, `CCOCCCNC(=O)c1ccc(NC(=O)NCc2ccncc2)cc1` [N-(3-ethoxypropyl)-4-(3-(pyridin-4-ylmethyl)ureido)benzamide] showed a pEC50 of 5.70 to 7.00.
In turn, `O=C(NCc1ccncc1)Nc1ccc(C(=O)NCc2cccc(F)c2)cc1` [N-(3-fluorobenzyl)-4-(3-(pyridin-4-ylmethyl)ureido)benzamide] had a pEC50 of less than 4.70.
Same read-out and setting: then `O=C(NCc1ccncc1)Nc1ccc(S(=O)(=O)NCc2cccc(F)c2)cc1` [N-(3-fluorobenzyl)-4-(3-(pyridin-4-ylmethyl)ureido)benzenesulfonamide], with 5.70 to 7.00.
Consider `O=C(NCc1ccncc1)Nc1ccc(C(=O)Nc2cccc(F)c2)cc1` [N-(3-fluorophenyl)-4-(3-(pyridin-4-ylmethyl)ureido)benzamide], for which the pEC50 is 5.70 to 7.00.
With `COc1cccc(CNC(=O)c2ccc(NC(=O)NCc3ccncc3)cc2)c1` [N-(3-methoxybenzyl)-4-(3-(pyridin-4-ylmethyl)ureido)benzamide], the negative logarithm of the EC50 (pEC50) is less than 4.70.
Consider `COc1cccc(NC(=O)c2ccc(NC(=O)NCc3ccncc3)cc2)c1` [N-(3-methoxyphenyl)-4-(3-(pyridin-4-ylmethyl)ureido)benzamide], for which the pEC50 was 5.70 to 7.00.
`Cc1cccc(CNC(=O)c2ccc(NC(=O)NCc3ccncc3)cc2)c1` [N-(3-methylbenzyl)-4-(3-(pyridin-4-ylmethyl)ureido)benzamide] gave a pEC50 of less than 4.70.
In turn, `Cc1cc(NC(=O)c2ccc(NC(=O)NCc3ccncc3)cc2)on1` [N-(3-methylisoxazol-5-yl)-4-(3-(pyridin-4-ylmethyl)ureido)benzamide] gave a pEC50 of 5.30 to 5.70.
Turning to `Cc1nc(NS(=O)(=O)c2ccc(NC(=O)NCc3ccncc3)cc2)oc1C` [N-(4,5-Dimethyl-oxazol-2-yl)-4-(3-pyridin-4-ylmethyl-ureido)-benzenesulfonamide], the pEC50 is less than 4.70.
Turning to `CN(C)Cc1ccc(CNS(=O)(=O)c2ccc(NC(=O)NCc3ccncc3)cc2)cc1` [N-(4-((dimethylamino)methyl)benzyl)-4-(3-(pyridin-4-ylmethyl)ureido)benzenesulfonamide], the negative-log EC50 (pEC50) is greater than 7.00.
Still for that read-out and setting: then `CN(C)c1ccc(NC(=O)c2ccc(NC(=O)NCc3ccncc3)cc2)cc1` [N-(4-(dimethylamino)phenyl)-4-(3-(pyridin-4-ylmethyl)ureido)benzamide], with 5.70 to 7.00.
As for `COCc1ccc(NC(=O)c2ccc(NC(=O)NCc3ccncc3)cc2)cc1` [N-(4-(methoxymethyl)phenyl)-4-(3-(pyridin-4-ylmethyl)ureido)benzamide], the pEC50 is less than 4.70.
With `CN(C)c1ccc(CNS(=O)(=O)c2ccc(NC(=O)NCc3ccncc3)cc2)cc1` [N-(4-Dimethylamino-benzyl)-4-(3-pyridin-4-ylmethyl-ureido)-benzenesulfonamide], the pEC50 was 5.70 to 7.00.
The compound `CS(=O)(=O)c1ccc(CNS(=O)(=O)c2ccc(NC(=O)NCc3ccncc3)cc2)cc1` [N-(4-Methanesulfonyl-benzyl)-4-(3-pyridin-4-ylmethyl-ureido)-benzenesulfonamide] had a pEC50 of 5.70 to 7.00.
In the case of `COc1ccc(NS(=O)(=O)c2ccc(NC(=O)NCc3ccncc3)cc2)cc1` [N-(4-Methoxy-phenyl)-4-(3-pyridin-4-ylmethyl-ureido)-benzenesulfonamide], the pEC50 was 5.70 to 7.00.
Consider `COCc1ccc(CNS(=O)(=O)c2ccc(NC(=O)NCc3ccncc3)cc2)cc1` [N-(4-Methoxymethyl-benzyl)-4-(3-pyridin-4-ylmethyl-ureido)-benzenesulfonamide], for which the pEC50 was 5.70 to 7.00.

Staying with this experiment, now noted: Table B-4; NAMPT activation, NMN formation.
Compound `O=C(NCc1cn[nH]c1)Nc1ccc(S(=O)(=O)NCc2cccc(F)c2)cc1` [N-(3-Fluoro-benzyl)-4-[3-(1H-pyrazol-4-ylmethyl)-ureido]-benzenesulfonamide] had a pEC50 of 5.70 to 7.00.

The values above are taken from patent publication US11452717B2, “Small molecule activators of nicotinamide phosphoribosyltransferase (NAMPT) and uses thereof” (Sanford Burnham Prebys Medical Discovery Institute, priority 2017, dated 2022).
